By IC50 is commonly meant the midpoint of a concentration-inhibition curve.

Here are results for 7 compounds from PMC10819651 (Molecules, 2024).

What all share (assay type): biochemical
The target of experiment [1] is T1, Human monoamine oxidase B (Homo sapiens, UniProt P27338).
T1 construct: purchased Sigma-Aldrich (Milan, Italy)
T1 sequence (P27338 1-520): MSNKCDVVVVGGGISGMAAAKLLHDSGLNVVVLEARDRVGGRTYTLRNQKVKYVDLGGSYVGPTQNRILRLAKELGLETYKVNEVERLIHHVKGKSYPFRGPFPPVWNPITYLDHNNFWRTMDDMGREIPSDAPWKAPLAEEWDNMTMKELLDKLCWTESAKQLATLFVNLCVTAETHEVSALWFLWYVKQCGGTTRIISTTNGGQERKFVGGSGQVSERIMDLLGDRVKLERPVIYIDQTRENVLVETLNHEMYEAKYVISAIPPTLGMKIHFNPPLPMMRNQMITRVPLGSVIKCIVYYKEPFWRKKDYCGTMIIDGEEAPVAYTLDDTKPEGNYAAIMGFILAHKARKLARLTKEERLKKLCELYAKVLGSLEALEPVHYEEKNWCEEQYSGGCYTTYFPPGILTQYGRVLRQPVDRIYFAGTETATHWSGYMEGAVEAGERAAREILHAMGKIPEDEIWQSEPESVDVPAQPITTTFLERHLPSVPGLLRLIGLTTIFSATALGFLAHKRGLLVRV
The experiment in a line: Kinetic analysis of MAO-B inhibition (KM, Vmax, apparent Ki). Conditions: for Note: type of inhibition approached (MAO-B): for mixed inhibitors; for Inhibition Type (MAO-B): kynuramine 25–150 µM, two fixed inhibitor concentrations; for Ki: apparent Ki, mean ± SE (n). As to the method:
(§1) Monoamine oxidase activity was assayed by the fluorimetric method, as previously reported. This method, based on the monoamine oxidase oxidation of its non-selective substrate kynuramine, led to the production of […], which becomes fluorescent in alkaline conditions. In steady-state measurements of MAO activity, the reaction mixture (250 µL), prepared in a 50 mM potassium phosphate buffer, pH 7.1 (buffer A), contained 40 μM kynuramine in the absence or presence of the indicated concentration of the inhibitor. The DMSO concentration carried over by the inhibitor was 0.5% (v/v), and an identical concentration of DMSO was used in the absence of the inhibitor. The reaction started with the addition of 3.75 μg monoamine oxidase A or B and lasted 20 min. The reaction was stopped by adding 150 μL of 2 M NaOH and, after 10 min of incubation at room temperature, 240 μL of water. After centrifugation (10 min at 15,000 rpm), the fluorescence signal was measured on 500 μL of supernatant using a Cary Eclipse Spectrofluorimeter (Agilent Technologies, Milan, Italy) at room temperature (20–25 °C). Excitation and emission wavelengths of 315 and 380 nm, respectively, were employed; slits were set to 10 nm for both the excitation and emission beams.
(§2) The kinetic parameters KM and Vmax for MAO and XO substrates were obtained through kinetic measurements of these activities performed at different substrate concentrations, either in the absence or in the presence of two fixed concentrations of the various inhibitors. […] Each assay was realized as reported above, and the values of the initial velocity (vi) of the reaction were evaluated under the various experimental conditions. The data of vi were nonlinearly fitted according to the Michaelis–Menten equation or analyzed by the Lineweaver–Burk equation in order to derive the kinetic parameters in the absence (KM and Vmax) or in the presence (K’M and V’max) of the inhibitor.
(§3) The inhibition power of the various compounds and their inhibition mechanisms were evaluated. […] However, an apparent inhibition constant (K’i) was calculated at each inhibitor concentration using the equations hereafter reported, depending on the type of inhibition tentatively approached from the experimental data:K’i = V’max × [I]/(Vmax − V’max)(1) K’i = KM × [I]/(K’M − KM)(2) K’i = K’M × [I]/(KM − K’M)(3)
(§4) The K’i values obtained at different inhibitor concentrations were then averaged to obtain a unique value of apparent Ki for each compound.

Experiment [2] deals with T2, Human monoamine oxidase A (Homo sapiens, UniProt P21397).
T2 construct: purchased Sigma-Aldrich (Milan, Italy)
T2 sequence (P21397 1-527): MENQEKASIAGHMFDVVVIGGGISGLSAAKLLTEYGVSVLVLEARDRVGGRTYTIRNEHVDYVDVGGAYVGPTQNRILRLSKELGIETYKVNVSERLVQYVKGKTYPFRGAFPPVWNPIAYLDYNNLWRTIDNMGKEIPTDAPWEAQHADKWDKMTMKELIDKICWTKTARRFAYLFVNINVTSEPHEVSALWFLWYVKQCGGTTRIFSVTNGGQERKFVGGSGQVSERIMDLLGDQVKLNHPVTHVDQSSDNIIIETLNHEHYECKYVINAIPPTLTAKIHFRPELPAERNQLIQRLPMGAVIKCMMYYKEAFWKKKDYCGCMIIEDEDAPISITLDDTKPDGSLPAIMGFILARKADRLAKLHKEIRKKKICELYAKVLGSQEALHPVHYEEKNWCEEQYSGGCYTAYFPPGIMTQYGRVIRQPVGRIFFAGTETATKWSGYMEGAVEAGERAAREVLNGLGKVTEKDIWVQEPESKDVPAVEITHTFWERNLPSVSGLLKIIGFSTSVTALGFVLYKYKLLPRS
In words: Kinetic analysis of MAO-A inhibition (KM, Vmax, apparent Ki). The conditions noted are these: for Note: type of inhibition approached (MAO-A): for mixed inhibitors; for Inhibition Type (MAO-A): kynuramine 25–150 µM, two fixed inhibitor concentrations; for Ki: apparent Ki, mean ± SE (n). As to the method: as §1, §2, §3, §4

Experiment [3] has as its target T1, Human monoamine oxidase B. In words: Steady-state MAO-B activity, fluorimetric kynuramine assay. Conditions: 40 μM kynuramine, 20 min, pH 7.1; mean ± SD (n); from semilogarithmic plot. As to the method:
as §1

Experiment [4] concerns the target T3, bovine milk xanthine oxidase (Bos taurus, UniProt P80457).
T3 construct: bovine milk xanthine oxidase; purchased Sigma-Aldrich (Milan, Italy); host or cells: bovine milk
The experiment in a line: Steady-state xanthine oxidase activity, spectrophotometric assay. Conditions: for IC50: read-out: IC50 XO inhibition. On the procedure: Xanthine oxidase activity was assayed through a spectrophotometric method, essentially as previously reported. […] The DMSO concentration carried over by the inhibitor was 1% (v/v), and an identical concentration of DMSO was used in the absence of the inhibitor. The reaction started with the addition of XO and was followed kinetically for up to 30 s. The initial rate of uric acid formation was expressed as ΔE/min. The effect of each inhibitor in the XO assay was evaluated, and the data were treated as previously indicated for the MAO assay, including the extrapolation of the IC50 values.

Experiment [5] concerns the target T2, Human monoamine oxidase A. In words: Steady-state MAO-A activity, fluorimetric kynuramine assay. Conditions: 40 μM kynuramine, 20 min, pH 7.1; mean ± SD (n); from semilogarithmic plot. On the procedure:
as §1, with “The reaction started with the addition of 3.75 μg monoamine oxidase A or B and lasted 20 min.” left out, “°C).” for “°C). Excitation and emission wavelengths of 315 and 380 nm, respectively, were employed; slits were set to 10 nm for both the excitation and emission beams.”

The mark [6] stands for this setting: read-out: Ki, Calculated from KM Increase (MAO-B).
The mark [7] stands for this setting: 75 μM xanthine, pH 7.8, 25 °C, mean ± SE (n), extrapolated from semilogarithmic plot.
Where [8] appears, read: read-out: Ki, Calculated from KM Increase (MAO-A).

Entries after “also recorded” stand apart in the source; their conditions may differ. Where two headings read alike, the source gives them in different places.

T3 sequence (P80457 whole entry): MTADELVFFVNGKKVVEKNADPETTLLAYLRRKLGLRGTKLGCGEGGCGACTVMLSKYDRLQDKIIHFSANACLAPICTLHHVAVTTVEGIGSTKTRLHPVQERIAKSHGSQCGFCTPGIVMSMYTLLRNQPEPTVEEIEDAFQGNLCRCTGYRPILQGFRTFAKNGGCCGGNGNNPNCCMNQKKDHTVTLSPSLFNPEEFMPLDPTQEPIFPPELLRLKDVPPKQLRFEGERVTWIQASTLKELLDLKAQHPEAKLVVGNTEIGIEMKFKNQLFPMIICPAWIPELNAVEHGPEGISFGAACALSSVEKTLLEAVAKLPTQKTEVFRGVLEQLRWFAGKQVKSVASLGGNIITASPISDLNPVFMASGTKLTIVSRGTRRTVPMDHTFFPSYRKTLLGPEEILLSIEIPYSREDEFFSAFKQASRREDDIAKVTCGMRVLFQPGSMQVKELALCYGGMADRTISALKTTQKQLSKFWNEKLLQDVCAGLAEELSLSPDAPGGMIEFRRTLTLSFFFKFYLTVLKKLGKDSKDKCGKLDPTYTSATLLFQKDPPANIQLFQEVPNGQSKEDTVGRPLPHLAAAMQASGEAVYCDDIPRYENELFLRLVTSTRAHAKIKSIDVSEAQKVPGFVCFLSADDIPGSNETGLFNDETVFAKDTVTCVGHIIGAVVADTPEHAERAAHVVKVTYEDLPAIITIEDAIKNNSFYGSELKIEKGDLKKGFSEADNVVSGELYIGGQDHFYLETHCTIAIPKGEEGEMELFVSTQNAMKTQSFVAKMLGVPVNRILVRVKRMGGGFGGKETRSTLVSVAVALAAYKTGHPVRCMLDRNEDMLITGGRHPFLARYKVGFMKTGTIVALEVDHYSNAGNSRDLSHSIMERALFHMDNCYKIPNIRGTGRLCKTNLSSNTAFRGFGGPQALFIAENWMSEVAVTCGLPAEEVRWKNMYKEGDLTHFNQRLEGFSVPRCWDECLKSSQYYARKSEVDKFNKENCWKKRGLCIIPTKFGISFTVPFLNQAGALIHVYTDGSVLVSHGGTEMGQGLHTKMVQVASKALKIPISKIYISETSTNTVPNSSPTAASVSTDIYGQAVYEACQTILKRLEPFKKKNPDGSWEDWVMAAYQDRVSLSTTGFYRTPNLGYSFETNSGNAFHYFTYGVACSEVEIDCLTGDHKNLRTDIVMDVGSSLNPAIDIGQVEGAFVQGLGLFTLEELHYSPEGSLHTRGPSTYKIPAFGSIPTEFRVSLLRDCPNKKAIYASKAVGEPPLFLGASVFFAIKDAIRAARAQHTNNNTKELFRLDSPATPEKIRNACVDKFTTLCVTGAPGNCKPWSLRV

Regarding `COc1cc2c(cc1OC)C(=O)C(CC1CCN(Cc3ccccc3)CC1)C2` (stereo not shown) [Donepezil, donepezil, reference compound], in experiment [1], the “Note: type of inhibition approached (MAO-B)” value is given as “approaching competitive” and the “Inhibition Type (MAO-B)” value is on record as “mixed”. Besides, in experiment [2], the “Note: type of inhibition approached (MAO-A)” value is listed as “approaching noncompetitive” and the “Inhibition Type (MAO-A)” value is recorded as “mixed”.

As for `CC(=O)Oc1ccc(CCOC(=O)C2CCN(Cc3ccccc3)CC2)cc1` [HT4a], the IC50 in experiment [3] was 86 ± 24 µM; in experiment [4] (setting [7]), 438 ± 6 µM; in experiment [5] it was 57 ± 18.2 µM. Moreover, the Ki in experiment [1] (setting [6]) was 20.7 ± 2.8 µM; in experiment [2] (setting [8]), 15.6 ± 4.2 µM. In addition, the “Inhibition Type (MAO-B)” value in experiment [1] is recorded as “competitive”. Besides, the “Note: type of inhibition approached (MAO-A)” value in experiment [2] was “approaching competitive”. In addition, in experiment [2], the “Inhibition Type (MAO-A)” value is listed as “mixed”.

Take `COc1cc(CCOC(=O)C2CCN(Cc3ccccc3)CC2)ccc1O` [HT3, 4-hydroxy-3-methoxyphenethyl 1-benzylpiperidine-4-carboxylate]: the IC50 in experiment [3] was 171 ± 44 µM; in experiment [4] (setting [7]), 361 ± 1 µM; in experiment [5], 23.4 ± 6.3 µM. Besides, the Ki in experiment [1] (setting [6]) is 115 ± 50 µM; in experiment [2] (setting [8]), 7.6 ± 3.7 µM. The “Note: type of inhibition approached (MAO-B)” value in experiment [1] is reported as “approaching competitive”. In addition, the “Inhibition Type (MAO-B)” value in experiment [1] is given as “mixed”. Further, the “Note: type of inhibition approached (MAO-A)” value in experiment [2] is reported as “approaching competitive”. Also, in experiment [2], the “Inhibition Type (MAO-A)” value is given as “mixed”.

As to `O=C(OCCc1ccc(O)c(O)c1)C1CCN(Cc2ccccc2)CC1` [HT1, 3,4-dihydroxyphenetyl 1-benzylpiperidine-4-carboxylate], the IC50 is 125 ± 28 µM in experiment [3], 454 ± 22 µM in experiment [4] (setting [7]) and 54.1 ± 6.9 µM in experiment [5]. For the same compound, the results for the Ki in experiment [1] (setting [6]) and in experiment [2] (setting [8]) were 163 ± 28 µM and 39.7 ± 14.3 µM, respectively. Besides, the “Inhibition Type (MAO-B)” value in experiment [1] is given as “competitive”. Further, the “Note: type of inhibition approached (MAO-A)” value in experiment [2] is listed as “approaching competitive”. The “Inhibition Type (MAO-A)” value in experiment [2] is “mixed”.

`CC(=O)Oc1ccc(CCOC(=O)C2CCN(Cc3ccccc3)CC2)cc1OC(C)=O` [HT1a] returned an IC50 in experiment [3] of 85 ± 33 µM. In addition, the Ki in experiment [1] (setting [6]) was 37.9 ± 13.1 µM. In experiment [1], the “Note: type of inhibition approached (MAO-B)” value is on record as “approaching competitive” and the “Inhibition Type (MAO-B)” value is “mixed”. Further, the “IC50 XO inhibition” value in experiment [4] (setting [7]) is listed as “no inhibition”. The “Inhibition of XO activity (in words)” value in experiment [4] (steady-state, concentration series) is “almost ineffective; also recorded: essentially no inhibition”. For the same compound, the Ki in experiment [2] (setting [8]) is 36.5 ± 13.2 µM. Besides, in experiment [2], the “Note: type of inhibition approached (MAO-A)” value is recorded as “approaching competitive” and the “Inhibition Type (MAO-A)” value is “mixed”. The same compound had a 50% inhibitory concentration (IC50) in experiment [5] of 50.8 ± 11 µM.

As to `O=C(OCCc1ccc(O)cc1)C1CCN(Cc2ccccc2)CC1` [HT4, 4-hydroxyphenethyl 1-benzylpiperidine-4-carboxylate], the concentration for half-maximal inhibition (IC50) was 106 ± 22 µM in experiment [3], 605 ± 35 µM in experiment [4] (setting [7]) and 14.3 ± 2.2 µM in experiment [5]. For the same compound, the “Inhibition Type (MAO-B)” value in experiment [1] is “uncompetitive”. The Ki in experiment [1] (uncompetitive, read-out: Ki, average value from Vmax or KM decrease (MAO-B)) was 128 ± 45 µM; in experiment [2] (setting [8]), 6.1 ± 1.6 µM. In addition, in experiment [2], the “Note: type of inhibition approached (MAO-A)” value was “approaching competitive”. The “Inhibition Type (MAO-A)” value in experiment [2] was “mixed”.

Consider `COc1cc(CCOC(=O)C2CCN(Cc3ccccc3)CC2)ccc1OC(C)=O` [HT3a], for which the IC50 in experiment [3] was 174 ± 80 µM; in experiment [4] (setting [7]) it was 282 ± 37 µM; in experiment [5], 44.3 ± 14.4 µM. Further, the Ki is 190 ± 37 µM in experiment [1] (setting [6]) and 80.5 ± 30.4 µM in experiment [2] (uncompetitive, read-out: Ki, average value from Vmax or KM decrease (MAO-A)). Besides, the “Note: type of inhibition approached (MAO-B)” value in experiment [1] is on record as “approaching competitive”. The “Inhibition Type (MAO-B)” value in experiment [1] is “mixed”. Further, the “Inhibition Type (MAO-A)” value in experiment [2] is “uncompetitive”.
